# Test results published in PubChem BioAssay (NCI).
#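 Results reflect a 48-hour exposure of cells in 96-well plates to compound at five concentrations. GI50 marks 50% less growth. TGI: concentration producing complete growth inhibition.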
# Tested on: IGROV1 ovarian
# Assay: growth of human tumour cells (NCI), 48 h
row,SMILES,TGI [µM]
1,O=C(OC1CCC(=C2SCCCS2)[C@H]1C1SCCCS1)c1ccccc1 (stereo not given in full),> 100
2,O=C(/C(=C/c1ccc(Cl)cc1)c1ccccc1)c1ccccc1,49.1
3,c1ccc2c(OCCSCCCCCCCCCCSCCOc3cccc4ccccc34)cccc2c1,> 100
4,CN1CCC(=O)/C(=C/c2ccccc2)C1,33.5

# Tested on: K-562 leukemia
# Assay: growth of human tumour cells (NCI), 48 h
SMILES,GI50 [µM],TGI [µM]
CC1(C)OC2C(CO[Si](C)(C)C(C)(C)C)OC(n3c(I)c(C#C[Si](C)(C)C)c(=O)[nH]c3=O)C2O1 (stereo not given),1.61,3.89
CN(C)CC[C@H](CSc1ccccc1)Nc1ccc(S(=O)(=O)NC(=O)c2ccc(N3CCN(Cc4ccccc4-c4ccc(Cl)cc4)CC3)cc2)cc1[N+](=O)[O-],5.03,> 100
COc1ccc(-c2ccc(=O)oc2C#Cc2cc(OC)c(OC)c(OC)c2)cc1O,0.129,> 100
O=C(/C=C/c1ccc[nH]1)c1ccc(-n2ccc(C(F)(F)F)n2)cc1,38.6,> 100
O=C(c1ccco1)c1c(C(F)(F)F)nc2ccc(Cl)cc2[n+]1[O-],33.2,> 100
COc1ccc(-c2nnc3n(C)c(=O)c4ccccc4n23)cc1N,0.0395,> 100
CN(C)C1CCN(C(=O)c2ccc(NC(=O)Nc3ccc(-c4nc(N5CCOCC5)c5cccn5n4)cc3)cc2)CC1,0.224,9.66
COc1cc(N=Nc2ccc(O)c3ncccc23)c2ncccc2c1,3.44,> 100
CCOC(=O)N[C@H]1CCc2cc(OC)c(OC)c(OC)c2-c2ccc(SC)c(=O)cc21,–,> 100
Cc1nc(Nc2cccnc2)sc1C(=O)/C=C/c1ccc(F)cc1,2.78,> 100
N=c1c2c(-c3ccccc3)c(-c3ccccc3)n(Cc3ccccc3)c2ncn1C1CCC(O)CC1 (stereo not given),0.0976,2.64
O=C(Nc1cccc(Cl)c1)C(=O)C(C(=O)c1ccc2ccccc2c1)C1OC(=O)c2ccccc21 (stereo not given),–,70.2
O=c1c(F)cn(Cc2ccc(C34CC5CC(CC(C5)C3)C4)c(O)c2)c(=O)n1Cc1ccc(C23CC4CC(CC(C4)C2)C3)c(O)c1,5.29,> 100
COCC(OC)C(CC=C(C#N)C#N)OC (stereo not given),–,> 100
NC1CCN(Cc2ccccc2)CC1,> 100,> 100
On1c(-c2ccccc2)c(-c2ccccc2N2CCCC2)c2ccccc21,–,> 100

SMILES,GI50 [µM],TGI [µM]
CCN1CCN(c2cc(C)c3cc(NC(=O)c4ccc(OC)c(OC)c4)ccc3n2)CC1,2.75,> 100
COC(=O)c1c2c(c(C)[n+]([O-])c1C)C(=O)C=C(NCc1ccc(F)cc1)C2=O,0.251,5.04
CC(C)C1=Cc2ccc3c(c2C(=O)C1=O)CCCC3(C)C,–,> 100
Nc1ncn([C@@H]2O[C@H](CO)[C@@H](O)[C@H]2O)c(=O)n1,0.572,> 100
CSc1nc(SC)c2c(C#N)[nH]nc2n1,–,> 100
CC(=O)Nc1ccc(-c2csc(Nc3cccc(-c4csc(C)n4)c3)n2)cc1,0.385,9.55
COc1ccc(CCN(C)C2CCC(C#N)(c3ccc(OC)c(OC)c3)CC2)cc1OC (stereo not given),–,> 100
C=CCC1(c2ccc(OC)cc2)C=CC(=O)CC1 (stereo not given),–,> 100
CCOC(=O)c1nc2c(OC)nn(O)cc-2c1[N+](=O)[O-],–,36.8
C/C(CC(=O)Nc1ccc(C)c(C)c1)=N\N(c1ccccc1)c1ccccc1,–,68.9
COC(=O)/C(=N\NC(N)=S)C(C(=O)OC)C(=O)C(=O)Nc1ccc(C)cc1 (stereo not given),–,> 100
O=C(OC1CCC(=C2SCCCS2)[C@H]1C1SCCCS1)c1ccccc1 (stereo not given in full),–,> 100
O=C(/C(=C/c1ccc(Cl)cc1)c1ccccc1)c1ccccc1,–,> 100
c1ccc2c(OCCSCCCCCCCCCCSCCOc3cccc4ccccc34)cccc2c1,–,> 100
CN1CCC(=O)/C(=C/c2ccccc2)C1,–,> 28.9

# Tested on: MALME-3M melanoma
# Assay: growth of human tumour cells (NCI), 48 h
SMILES,GI50 [µM],TGI [µM]
CC1(C)OC2C(CO[Si](C)(C)C(C)(C)C)OC(n3c(I)c(C#C[Si](C)(C)C)c(=O)[nH]c3=O)C2O1 (stereo not given),4.62,18.6
CN(C)CC[C@H](CSc1ccccc1)Nc1ccc(S(=O)(=O)NC(=O)c2ccc(N3CCN(Cc4ccccc4-c4ccc(Cl)cc4)CC3)cc2)cc1[N+](=O)[O-],3.11,36.3
COc1ccc(-c2ccc(=O)oc2C#Cc2cc(OC)c(OC)c(OC)c2)cc1O,2.66,> 92.6
O=C(/C=C/c1ccc[nH]1)c1ccc(-n2ccc(C(F)(F)F)n2)cc1,> 100,> 100
O=C(c1ccco1)c1c(C(F)(F)F)nc2ccc(Cl)cc2[n+]1[O-],> 100,> 100
COc1cc(N=Nc2ccc(O)c3ncccc23)c2ncccc2c1,4.03,33.7
CCOC(=O)N[C@H]1CCc2cc(OC)c(OC)c(OC)c2-c2ccc(SC)c(=O)cc21,< 0.0122,> 100
Cc1nc(Nc2cccnc2)sc1C(=O)/C=C/c1ccc(F)cc1,5.55,40
N=c1c2c(-c3ccccc3)c(-c3ccccc3)n(Cc3ccccc3)c2ncn1C1CCC(O)CC1 (stereo not given),0.389,1.68
O=C(Nc1cccc(Cl)c1)C(=O)C(C(=O)c1ccc2ccccc2c1)C1OC(=O)c2ccccc21 (stereo not given),–,30.8
O=c1c(F)cn(Cc2ccc(C34CC5CC(CC(C5)C3)C4)c(O)c2)c(=O)n1Cc1ccc(C23CC4CC(CC(C4)C2)C3)c(O)c1,14.8,29.2
COCC(OC)C(CC=C(C#N)C#N)OC (stereo not given),–,> 100
N#Cc1nn(-c2cc(=O)[nH]c3ccc(Cl)cc23)c(N)c1C#N,> 100,> 100
On1c(-c2ccccc2)c(-c2ccccc2N2CCCC2)c2ccccc21,–,> 100
CCN1CCN(c2cc(C)c3cc(NC(=O)c4ccc(OC)c(OC)c4)ccc3n2)CC1,13.3,31.3
COC(=O)c1c2c(c(C)[n+]([O-])c1C)C(=O)C=C(NCc1ccc(F)cc1)C2=O,0.153,0.389
CC(C)C1=Cc2ccc3c(c2C(=O)C1=O)CCCC3(C)C,–,10.5
Nc1ncn([C@@H]2O[C@H](CO)[C@@H](O)[C@H]2O)c(=O)n1,3.65,25.3
CSc1nc(SC)c2c(C#N)[nH]nc2n1,–,> 100
COc1ccc(CCN(C)C2CCC(C#N)(c3ccc(OC)c(OC)c3)CC2)cc1OC (stereo not given),–,> 100
CCOC(=O)c1nc2c(OC)nn(O)cc-2c1[N+](=O)[O-],–,32.4
C/C(CC(=O)Nc1ccc(C)c(C)c1)=N\N(c1ccccc1)c1ccccc1,–,> 100
COC(=O)/C(=N\NC(N)=S)C(C(=O)OC)C(=O)C(=O)Nc1ccc(C)cc1 (stereo not given),–,> 100
O=C(OC1CCC(=C2SCCCS2)[C@H]1C1SCCCS1)c1ccccc1 (stereo not given in full),–,> 100
O=C(/C(=C/c1ccc(Cl)cc1)c1ccccc1)c1ccccc1,–,31.3
c1ccc2c(OCCSCCCCCCCCCCSCCOc3cccc4ccccc34)cccc2c1,–,> 100
CN1CCC(=O)/C(=C/c2ccccc2)C1,–,35.4

# Tested on: NCI/ADR-RES ovarian
# Assay: growth of human tumour cells (NCI), 48 h
SMILES,GI50 [µM],TGI [µM]
CC1(C)OC2C(CO[Si](C)(C)C(C)(C)C)OC(n3c(I)c(C#C[Si](C)(C)C)c(=O)[nH]c3=O)C2O1 (stereo not given),20.4,58.3
CN(C)CC[C@H](CSc1ccccc1)Nc1ccc(S(=O)(=O)NC(=O)c2ccc(N3CCN(Cc4ccccc4-c4ccc(Cl)cc4)CC3)cc2)cc1[N+](=O)[O-],> 61.6,> 100
COc1ccc(-c2ccc(=O)oc2C#Cc2cc(OC)c(OC)c(OC)c2)cc1O,0.262,> 43.8
O=C(/C=C/c1ccc[nH]1)c1ccc(-n2ccc(C(F)(F)F)n2)cc1,> 100,> 100
O=C(c1ccco1)c1c(C(F)(F)F)nc2ccc(Cl)cc2[n+]1[O-],> 100,> 100
COc1ccc(-c2nnc3n(C)c(=O)c4ccccc4n23)cc1N,0.0656,> 100
CN(C)C1CCN(C(=O)c2ccc(NC(=O)Nc3ccc(-c4nc(N5CCOCC5)c5cccn5n4)cc3)cc2)CC1,59.5,> 100
COc1cc(N=Nc2ccc(O)c3ncccc23)c2ncccc2c1,1.02,15.5
CCOC(=O)N[C@H]1CCc2cc(OC)c(OC)c(OC)c2-c2ccc(SC)c(=O)cc21,0.0319,> 100
